{
  "source": "patent US20070093969A1",
  "about": "“Molecular nephrotoxicology modeling” (priority 2002, published 2007)",
  "key": {"[1]": {"test_system": "renal GST-alpha subunit, cytochrome P4502E1", "details": "rat, in vivo; cited from earlier work"}, "rats [2]": {"test_system": "rats", "details": "cited from earlier work"}, "[3]": {"test_system": "kidney tissue gene expression", "details": "rat, in vivo"}, "patients": {"test_system": "patients", "details": "human, in vivo; cited from earlier work"}, "rats [4]": {"test_system": "rats", "details": "rat, in vivo; cited from earlier work"}},
  "data": [
    {"smiles": "NNc1nncc2ccccc12", "note": "[hydralazine, Hydralazine]", "values": [
      {"measurement": "renal GST-alpha subunit expression", "setting": "[1]", "value": "increase"},
      {"measurement": "renal cytochrome P4502E1 expression", "setting": "[1]", "value": "did not alter"},
      {"measurement": "kidney copper concentrations", "setting": "rats [2]; compared to control groups", "value": "increased"},
      {"measurement": "manganese and zinc concentrations", "setting": "rats [2]; rat, in vivo", "value": "not effected"}
    ]},
    {"smiles": "ClC(Cl)Cl", "note": "[chloroform, Chloroform (CHCl3)]", "values": [
      {"measurement": "Tox Group Mean, GLGC Identifier 1143", "setting": "[3]", "value": 131.83},
      {"measurement": "Tox Group Mean, GLGC Identifier 1409", "setting": "[3]", "value": 298.20},
      {"measurement": "Tox Group Mean, GLGC Identifier 1509", "setting": "[3]", "value": 431.65},
      {"measurement": "Tox Group Mean, GLGC Identifier 1581", "setting": "[3]", "value": 87.66},
      {"measurement": "Tox Group Mean, GLGC Identifier 1644", "setting": "[3]", "value": 418.83},
      {"measurement": "Tox Group Mean, GLGC Identifier 1652", "setting": "[3]", "value": 476.16},
      {"measurement": "Tox Group Mean, GLGC Identifier 1653", "setting": "[3]", "value": 686.13},
      {"measurement": "Tox Group Mean, GLGC Identifier 1877", "setting": "[3]", "value": 444.75},
      {"measurement": "Tox Group Mean, GLGC Identifier 1929", "setting": "[3]", "value": 536.97},
      {"measurement": "Tox Group Mean, GLGC Identifier 1949", "setting": "[3]", "value": 57.75},
      {"measurement": "Tox Group Mean, GLGC Identifier 2059", "setting": "[3]", "value": 219.06},
      {"measurement": "Tox Group Mean, GLGC Identifier 2439", "setting": "[3]", "value": 102.63},
      {"measurement": "Tox Group Mean, GLGC Identifier 2912", "setting": "[3]", "value": 1436.37},
      {"measurement": "Tox Group Mean, GLGC Identifier 3015", "setting": "[3]", "value": 2837.91},
      {"measurement": "Tox Group Mean, GLGC Identifier 3091", "setting": "[3]", "value": 421.64},
      {"measurement": "Tox Group Mean, GLGC Identifier 3803", "setting": "[3]", "value": 975.63},
      {"measurement": "Tox Group Mean, GLGC Identifier 3875", "setting": "[3]", "value": 252.35},
      {"measurement": "Tox Group Mean, GLGC Identifier 4178", "setting": "[3]", "value": 444.39},
      {"measurement": "Tox Group Mean, GLGC Identifier 4462", "setting": "[3]", "value": 414.41},
      {"measurement": "Tox Group Mean, GLGC Identifier 4463", "setting": "[3]", "value": 43.16},
      {"measurement": "Tox Group Mean, GLGC Identifier 4473", "setting": "[3]", "value": 95.76},
      {"measurement": "Tox Group Mean, GLGC Identifier 4933", "setting": "[3]", "value": 743.88},
      {"measurement": "Tox Group Mean, GLGC Identifier 5369", "setting": "[3]", "value": 274.28},
      {"measurement": "Tox Group Mean, GLGC Identifier 6127", "setting": "[3]", "value": 41.36},
      {"measurement": "Tox Group Mean, GLGC Identifier 6343", "setting": "[3]", "value": 46.79},
      {"measurement": "Tox Group Mean, GLGC Identifier 6641", "setting": "[3]", "value": 233.86},
      {"measurement": "Tox Group Mean, GLGC Identifier 7216", "setting": "[3]", "value": 123.29},
      {"measurement": "Tox Group Mean, GLGC Identifier 7299", "setting": "[3]", "value": 334.53},
      {"measurement": "Tox Group Mean, GLGC Identifier 7505", "setting": "[3]", "value": 274.29},
      {"measurement": "Tox Group Mean, GLGC Identifier 7622", "setting": "[3]", "value": 88.74},
      {"measurement": "Tox Group Mean, GLGC Identifier 7634", "setting": "[3]", "value": 538.91},
      {"measurement": "Tox Group Mean, GLGC Identifier 7936", "setting": "[3]", "value": 93.98},
      {"measurement": "Tox Group Mean, GLGC Identifier 8721", "setting": "[3]", "value": 73.87},
      {"measurement": "Tox Group Mean, GLGC Identifier 8829", "setting": "[3]", "value": 505.66},
      {"measurement": "Tox Group Mean, GLGC Identifier 8927", "setting": "[3]", "value": 508.53},
      {"measurement": "Tox Group Mean, GLGC Identifier 8946", "setting": "[3]", "value": 112.12},
      {"measurement": "Tox Group Mean, GLGC Identifier 9116", "setting": "[3]", "value": 269.31},
      {"measurement": "Tox Group Mean, GLGC Identifier 9176", "setting": "[3]", "value": 288.61},
      {"measurement": "Tox Group Mean, GLGC Identifier 9191", "setting": "[3]", "value": 277.28},
      {"measurement": "Tox Group Mean, GLGC Identifier 10130", "setting": "[3]", "value": 117.70},
      {"measurement": "Tox Group Mean, GLGC Identifier 11761", "setting": "[3]", "value": 49.48},
      {"measurement": "Tox Group Mean, GLGC Identifier 11843", "setting": "[3]", "value": 61.43},
      {"measurement": "Tox Group Mean, GLGC Identifier 11953", "setting": "[3]", "value": 1079.47},
      {"measurement": "Tox Group Mean, GLGC Identifier 12129", "setting": "[3]", "value": 245.65},
      {"measurement": "Tox Group Mean, GLGC Identifier 13610", "setting": "[3]", "value": 226.14},
      {"measurement": "Tox Group Mean, GLGC Identifier 13646", "setting": "[3]", "value": 1169.38},
      {"measurement": "Tox Group Mean, GLGC Identifier 13727", "setting": "[3]", "value": 35.36},
      {"measurement": "Tox Group Mean, GLGC Identifier 14267", "setting": "[3]", "value": 1171.51},
      {"measurement": "Tox Group Mean, GLGC Identifier 15072", "setting": "[3]", "value": 42.04},
      {"measurement": "Tox Group Mean, GLGC Identifier 15836", "setting": "[3]", "value": 121.07},
      {"measurement": "Tox Group Mean, GLGC Identifier 15964", "setting": "[3]", "value": 583.51},
      {"measurement": "Tox Group Mean, GLGC Identifier 16468", "setting": "[3]", "value": 831.97},
      {"measurement": "Tox Group Mean, GLGC Identifier 16469", "setting": "[3]", "value": 991.10},
      {"measurement": "Tox Group Mean, GLGC Identifier 16756", "setting": "[3]", "value": 361.18},
      {"measurement": "Tox Group Mean, GLGC Identifier 16948", "setting": "[3]", "value": 145.85},
      {"measurement": "Tox Group Mean, GLGC Identifier 16958", "setting": "[3]", "value": 61.46},
      {"measurement": "Tox Group Mean, GLGC Identifier 17361", "setting": "[3]", "value": 50.93},
      {"measurement": "Tox Group Mean, GLGC Identifier 17516", "setting": "[3]", "value": 500.55},
      {"measurement": "Tox Group Mean, GLGC Identifier 17524", "setting": "[3]", "value": 799.10},
      {"measurement": "Tox Group Mean, GLGC Identifier 17541", "setting": "[3]", "value": 1464.81},
      {"measurement": "Tox Group Mean, GLGC Identifier 18509", "setting": "[3]", "value": 311.54},
      {"measurement": "Tox Group Mean, GLGC Identifier 19110", "setting": "[3]", "value": 84.32},
      {"measurement": "Tox Group Mean, GLGC Identifier 19144", "setting": "[3]", "value": 36.63},
      {"measurement": "Tox Group Mean, GLGC Identifier 19377", "setting": "[3]", "value": 155.74},
      {"measurement": "Tox Group Mean, GLGC Identifier 19679", "setting": "[3]", "value": 440.67},
      {"measurement": "Tox Group Mean, GLGC Identifier 19822", "setting": "[3]", "value": 994.53},
      {"measurement": "Tox Group Mean, GLGC Identifier 20000", "setting": "[3]", "value": 93.69},
      {"measurement": "Tox Group Mean, GLGC Identifier 20582", "setting": "[3]", "value": 347.72},
      {"measurement": "Tox Group Mean, GLGC Identifier 20708", "setting": "[3]", "value": 80.85},
      {"measurement": "Tox Group Mean, GLGC Identifier 20725", "setting": "[3]", "value": 621.86},
      {"measurement": "Tox Group Mean, GLGC Identifier 20741", "setting": "[3]", "value": 236.26},
      {"measurement": "Tox Group Mean, GLGC Identifier 21025", "setting": "[3]", "value": 233.83},
      {"measurement": "Tox Group Mean, GLGC Identifier 21060", "setting": "[3]", "value": 133.69},
      {"measurement": "Tox Group Mean, GLGC Identifier 21061", "setting": "[3]", "value": 86.99},
      {"measurement": "Tox Group Mean, GLGC Identifier 21088", "setting": "[3]", "value": 56.92},
      {"measurement": "Tox Group Mean, GLGC Identifier 21562", "setting": "[3]", "value": 265.87},
      {"measurement": "Tox Group Mean, GLGC Identifier 22490", "setting": "[3]", "value": 811.57},
      {"measurement": "Tox Group Mean, GLGC Identifier 22537", "setting": "[3]", "value": 145.19},
      {"measurement": "Tox Group Mean, GLGC Identifier 22648", "setting": "[3]", "value": 313.31},
      {"measurement": "Tox Group Mean, GLGC Identifier 22783", "setting": "[3]", "value": 473.86},
      {"measurement": "Tox Group Mean, GLGC Identifier 22855", "setting": "[3]", "value": 373.13},
      {"measurement": "Tox Group Mean, GLGC Identifier 22985", "setting": "[3]", "value": 83.55},
      {"measurement": "Tox Group Mean, GLGC Identifier 23033", "setting": "[3]", "value": 431.39},
      {"measurement": "Tox Group Mean, GLGC Identifier 23115", "setting": "[3]", "value": 278.57},
      {"measurement": "Tox Group Mean, GLGC Identifier 23282", "setting": "[3]", "value": 425.15},
      {"measurement": "Tox Group Mean, GLGC Identifier 23718", "setting": "[3]", "value": 65.41},
      {"measurement": "Tox Group Mean, GLGC Identifier 24234", "setting": "[3]", "value": 408.25},
      {"measurement": "Tox Group Mean, GLGC Identifier 24437", "setting": "[3]", "value": 56.38},
      {"measurement": "Tox Group Mean, GLGC Identifier 25168", "setting": "[3]", "value": 32.68},
      {"measurement": "Tox Group Mean, GLGC Identifier 25643", "setting": "[3]", "value": 187.37},
      {"measurement": "Tox Group Mean, GLGC Identifier 25777", "setting": "[3]", "value": 1173.74},
      {"measurement": "Tox Group Mean, GLGC Identifier 25862", "setting": "[3]", "value": 38.61},
      {"measurement": "Tox Group Mean, GLGC Identifier 25921", "setting": "[3]", "value": 47.30},
      {"measurement": "Tox Group Mean, GLGC Identifier 26183", "setting": "[3]", "value": 64.68}
    ]},
    {"smiles": "Nc1ccn(C[C@@H](CO)OCP(=O)(O)O)c(=O)n1", "note": "[cidofovir, Cidofovir]", "values": [
      {"measurement": "patients with dose-dependent asymptomatic proteinuria", "setting": "patients", "value": "Approximately 40%"},
      {"measurement": "patients with elevated serum creatinine levels", "setting": "patients", "value": 25, "unit": "%"}
    ]},
    {"smiles": "ClC(Cl)(Cl)Cl", "note": "[carbon tetrachloride, Carbon tetrachloride]", "values": [
      {"measurement": "glutathione peroxidase activity", "setting": "rats [4]", "value": "significant decrease"},
      {"measurement": "kidney superoxide dismutase and catalase activities", "setting": "rats [4]", "value": "Significant increases"}
    ]}
  ]
}
